Drawing on ChEMBL document CHEMBL5257113, “Development of versatile solid-phase methods for syntheses of PROTACs with diverse E3 ligands” (Bioorg Med Chem, 2023), this text covers Activity for four compounds.

The target of assay [1] is E3 ubiquitin-protein ligase XIAP/Bromodomain-containing protein 4 (Homo sapiens) (UniProt P98170+O60885). Put plainly: Protac activity at IAP/BRD4 in human SK-MEL-28 cells assessed as induction of BRD4 degradation at 0.1 to 10 uM measured after 24 hrs by Western blotting analysis. Type of assay: cell-based. The following applies: dose 0.1-10 µM.
Chain of E3 ubiquitin-protein ligase XIAP/Bromodomain-containing protein 4 (Homo sapiens) (P98170 whole entry, looked up, other chains not shown): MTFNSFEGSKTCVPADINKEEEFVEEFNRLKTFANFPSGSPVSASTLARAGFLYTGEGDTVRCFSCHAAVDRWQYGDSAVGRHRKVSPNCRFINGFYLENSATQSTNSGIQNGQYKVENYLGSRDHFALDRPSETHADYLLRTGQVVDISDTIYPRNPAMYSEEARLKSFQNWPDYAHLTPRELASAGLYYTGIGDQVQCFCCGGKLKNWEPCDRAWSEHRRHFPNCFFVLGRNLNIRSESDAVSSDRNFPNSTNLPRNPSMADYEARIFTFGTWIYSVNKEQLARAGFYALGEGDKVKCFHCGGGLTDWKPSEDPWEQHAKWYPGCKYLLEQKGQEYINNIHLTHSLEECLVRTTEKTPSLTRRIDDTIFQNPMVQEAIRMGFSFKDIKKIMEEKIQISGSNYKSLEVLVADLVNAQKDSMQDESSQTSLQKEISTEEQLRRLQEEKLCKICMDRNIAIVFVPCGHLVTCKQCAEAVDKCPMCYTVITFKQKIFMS
Assay [2] addresses von Hippel-Lindau disease tumor suppressor/Bromodomain-containing protein 4 (Homo sapiens) (UniProt O60885+P40337). Nature of the assay: Protac activity at VHL/BRD4 in human MCF7 cells assessed as induction of BRD4 degradation at 10 uM measured after 24 hrs by Western blotting analysis. The format is cell-based.

Molecules are shown by their SMILES. The source made the active and inactive calls. The rule behind the calls is not given here.

Chain of von Hippel-Lindau disease tumor suppressor/Bromodomain-containing protein 4 (Homo sapiens) (P40337 whole entry, looked up, other chains not shown): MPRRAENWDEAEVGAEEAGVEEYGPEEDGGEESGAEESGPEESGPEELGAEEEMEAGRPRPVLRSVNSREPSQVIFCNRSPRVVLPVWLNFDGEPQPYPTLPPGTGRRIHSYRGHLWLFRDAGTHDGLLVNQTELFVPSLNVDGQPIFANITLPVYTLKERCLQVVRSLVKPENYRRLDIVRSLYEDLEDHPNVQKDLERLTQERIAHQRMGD

For the compound `CN[C@@H](C)C(=O)N[C@H](C(=O)N1CCC[C@H]1c1nc(C(=O)c2cccc(OCC(=O)NCCCNC(=O)C[C@@H]3N=C(c4ccc(Cl)cc4)c4c(sc(C)c4C)-n4c(C)nnc43)c2)cs1)C1CCCCC1`, the outcome in assay [1] was Active.

Regarding `CC1=C(C)C2C(c3ccc(Cl)cc3)=N[C@@H](CC(=O)NCCCNC(=O)CCCC(=O)N[C@H](C(=O)N3C[C@H](O)C[C@H]3C(=O)NCc3ccc(-c4scnc4C)cc3)C(C)(C)C)c3nnc(C)n3C2S1` (some centres undefined), in assay [2], the outcome was Active.

As to `CC1=C(C)C2C(c3ccc(Cl)cc3)=N[C@@H](CC(=O)NCCOCCOCCNC(=O)CCCC(=O)N[C@H](C(=O)N3C[C@H](O)C[C@H]3C(=O)NCc3ccc(-c4scnc4C)cc3)C(C)(C)C)c3nnc(C)n3C2S1` (some centres undefined), the result in assay [2] was inactive.

Take `CN[C@@H](C)C(=O)N[C@H](C(=O)N1CCC[C@H]1c1nc(C(=O)c2cccc(OCC(=O)NCCOCCOCCOCCNC(=O)C[C@@H]3N=C(c4ccc(Cl)cc4)c4c(sc(C)c4C)-n4c(C)nnc43)c2)cs1)C1CCCCC1`: the outcome in assay [1] was Active.
